Experiments:
[1] = system: EA.hy926 endothelial hybrid cells; conditions: positive control; ref Köhler et al.[20]; cited from earlier work
[2] = system: 518A2 melanoma cells; conditions: positive control; ref Köhler et al.[20]; cited from earlier work
[3] = system: HCT-116 colon carcinoma cells; conditions: positive control; ref Köhler et al.[20]; cited from earlier work
[4] = system: HCT-116 p53-/- colon carcinoma cells; conditions: positive control; ref Köhler et al.[20]; cited from earlier work
[5] = system: U-87 glioblastoma cells; conditions: positive control; ref Köhler et al.[20]; read-out: IC50 U87; cited from earlier work
[6] = system: HT-29 colon carcinoma cells; conditions: positive control; ref Köhler et al.[20]; cited from earlier work
[7] = system: KB-V1^Vbl cervix carcinoma cells; conditions: without verapamil; ref Köhler et al.[20]; cited from earlier work
[8] = system: HeLa cervix carcinoma cells; set-up: method as in Köhler et al.[20]; conditions: positive control; ref Köhler et al.[20]; cited from earlier work
[9] = system: MCF-7 breast carcinoma cells; conditions: positive control; ref Köhler et al.[20]; cited from earlier work
[10] = system: HDFa adult human dermal fibroblasts; set-up: method as in Köhler et al.[20]; conditions: non-malignant cells; ref Köhler et al.[20]; cited from earlier work
[11] = system: tested cancer and hybrid cell lines; experiment: MTT assay, average over all tested cancer and hybrid cell lines
Method: An 3-(4, 5-dimethylthiazol-2-yl)-2, 5-diphenyl tetrazolium bromid (MTT) assay was used for antiproliferative studies. Cancer cells (5 × 10^4 cells/mL, 100 μL/well) were placed in 96-well plates (10 × 10^4 cells/mL for HDFA and U87 cells), and the cells were incubated for 24 h at 5% CO2 and 95% humidity. Then, cells were treated with test compounds (at various concentrations) or solely with DMSO as a negative control for 72 h. Then, 12.5 μL of a 0.5% MTT solution in phosphate-buffered saline (PBS) was added to the cells, followed by incubation for 2 h at 37 °C. After centrifugation of the plates (300 × g, 5 min, 4 °C), the medium was discarded, and 25 μL of DMSO containing 10% SDS and 0.6% acetic acid was added, followed by incubation at 37 °C for at least 1 h. Formazan absorbance at λ = 570 nm was measured using a Tecan infinite F200 microplate reader and corrected for the background (λ = 630 nm). The 50% inhibitory concentration (IC50) values were calculated from dose-response curves (means ± SD, four independent experiments) compared to DMSO-treated control cells, which were set to 100%. GraphPad Prism 9 was used for curve-fitting.
The selectivity index (SI) was calculated as a measure of selectivity toward cancer cells compared to non-malignant cells.

N#CC1=C(N)Oc2c(ccc3ccccc23)C1c1cccc([N+](=O)[O-])c1 (stereo not drawn) [1A, 2-amino-4-(3-nitrophenyl)-4H-naphtho(1,2-b)pyran-3-carbonitrile]
IC50 [1]: 0.03 ± 0.001 µM
IC50 [2]: 0.01 ± 0.001 µM
IC50 [3]: 0.008 ± 0.0007 µM
IC50 [4]: 0.03 ± 0.003 µM
IC50 [5]: 0.07 ± 0.009 µM
IC50 [6]: 0.03 ± 0.003 µM
IC50 [7]: 0.02 ± 0.002 µM
IC50 [8]: 0.04 ± 0.002 µM
IC50 [9]: 0.2 ± 0.02 µM
IC50 [10]: 40.7 µM
IC50 ([11]; Homo sapiens, read-out: Average IC50 value of the tested cancer and hybrid cell lines (Ø IC50), average of all cell lines of Table 2): 0.052 µM
SI (IC50 HDFa cells/IC50 tumor cell average) ([11]; selectivity index, HDFa vs tumor cell average): 786
